From patent publication US10822431B2, “Fucoidan preparation, zinc-bound fucoidan and use thereof” (South Product Ltd., priority 2015, dated 2020)

Tested on: Hep G2 cells
Assay: Cytotoxicity test using Hep G2 cells (MTT assay)
Assay type: cell-based
Settings: up to 500 μg/ml; zinc only as a comparison
Protocol: Cytotoxicity Test Using Hep G2 Cells:
[…] P. (2000). “Cytotoxicity and Viability Assays”. In Masters, J. R. W. Animal Cell Culture: A Practical Approach, 3rd) using Hep G2 cells were conducted on these preparations.

Compound: [Zn] [zinc]
- Cytotoxicity of Hep G2 cells: no cytotoxicity of Hep G2 cells was confirmed
